Laboratory results taken from patent US20250205242A1, “CDK7 INHIBITORS FOR ANTIVIRAL TREATMENT” (QURIENT CO., LTD., priority 2022, published 2025).

Experiments:
HPV11 = experiment: HPV genome replicon assay (NanoLuc) in C-33 A cells, HPV11; format: cell-based, Human Papilloma Virus; settings: reference compound; value within the prescribed range
Excerpt: C-33 A, […] were obtained from ATCC and maintained in standard growth medium of MEM with Earl's salts supplemented with 10% FBS (Hyclone, Inc. Logan UT), L-glutamine, penicillin, and gentamycin.
HPV genome replicon assay was developed and expresses the essential E1 and E2 proteins from the native promoter. The E2 origin binding protein interacts with the virus origin of replication and recruits the E1 replicative helicase which unwinds the DNA and helps to recruit the cellular DNA replication machinery (including DNA polymerases, type I and type II topoisomerases, DNA ligase, single-stranded DNA binding proteins, proliferating cell nuclear antigen). The replication complex then drives the amplification of the replicon which can be assessed by the expression of a destabilized NanoLuc reporter gene carried on the replicon. In the HPV11 assay, the replicon (pMP619) is transfected into C-33 A cells grown as monolayers in 384-well plates. At 48 h post transfection, the enzymatic activity of the destabilized NanoLuc reporter is assessed with NanoGlo reagent. […] Analysis of HPV genome replication in specific types of HPV, such as HPV6, HPV11, or HPV31 is performed with plasmid systems that utilize each HPV type.

HCMV strain AD169-GFP = experiment: HCMV-GFP-based antiviral assay in HFF; format: cell-based, human cytomegalovirus
[1] = tested on: ganciclovir (GCV)-resistant HCMV strain ADP169-GFP314; experiment: HCMV-GFP-based antiviral assay, ganciclovir-resistant strain; format: cell-based, human cytomegalovirus
Procedure: A series of laboratory variants of AD169-GFP virus that are resistant to GCV was generated. HFF were infected in 12-well plates at a multiplicity of infection (MOI) of 0.002 and incubated with […] Ganciclovir. GFP expression in infected cells was monitored microscopically, and the supernatants from the positive wells were transferred to fresh cells weekly. Thereby Ganciclovir concentrations were increased stepwise (a […] increase at each step) up to the point where total virus replication became critical and resistant virus was grown in individual wells. Using supernatants from these wells, two rounds of plaque purifications were performed in HFF. Finally, Ganciclovir-resistant viral clones (AD169-GFP314) which were able to replicate in the presence of […] GCV were isolated.
HFF were cultured to 90% confluency in 12-well plates and used for infection with AD169-GFP HCMV-virus at a tissue culture infective dose of 0.5 (GFP-TCID50 0.5, referring to an MOI of 0.002 as determined by plaque assay titration). Virus inoculation was performed for 90 min at 37° C. with occasional shaking before virus was removed and the cell layers were rinsed with phosphate-buffered saline (PBS). Then infected cell layers were incubated with 2.5 ml of MEM containing 5% (vol/vol) fetal calf serum with or without a dilution of one of the respective test compounds. Infected cells were incubated at 37° C. under a 5% CO2 atmosphere for 7 days. For lysis, […] of lysis buffer (25 mM Tris [pH 7.8], 2 mM dithiothreitol [DTT], 2 mM trans-1,2-diaminocyclohexane-N,N,N9,N9-tetraacetic acid, 1% Triton X-100, 10% glycerol) was added to each well and incubated for 10 min at 37° C., followed by a 30-min incubation at room temperature on a shaker. Lysates were centrifuged for 5 min at 15,000 rpm in an Eppendorf centrifuge to remove cell debris. […] The […] of compounds against virus replication was determined by EC50 (50% effective concentration).

| Compound | EC50 (HPV11) [µM] | antiviral effectiveness against non-resistant viruses (HCMV strain AD169-GFP) | antiviral effectiveness against viruses resistant to nucleobase analogue drugs [1] |
| --- | --- | --- | --- |
| Nc1nc2c(ncn2CCOCP(=O)(O)O)c(=O)[nH]1 [PMEG] | 2 to 9.2 | – | – |
| C=C(F)C(=O)Nc1ccc2c(-c3ccccc3CNc3nc(N[C@@H]4CCC(C)(C)NC4)nc4c(C(C)C)cnn34)nccc2c1 [Compound 174] | – | highly effective | highly effective |
| C=C(F)C(=O)Nc1ccc2c(-c3ccccc3CNc3nc(NC4CCC(C)(C)NC4)nc4c(C(C)C)cnn34)nccc2c1 (stereo not shown) [Compound 175] | – | highly effective | highly effective |
| C=C(F)C(=O)Nc1ccc2c(-c3ccccc3CNc3nc(OC4CCC(C)(C)NC4)nc4c(C(C)C)cnn34)nccc2c1 (stereo not shown) [Compound 177] | – | highly effective | highly effective |
